Measured values: patent US20250114338A1, “TETRAHYDRO-PYRIDO[3,4-b]INDOLE ESTROGEN RECEPTOR MODULATORS AND USES THEREOF” (Genentech, Inc., priority 2014, published 2025)

The compounds below were run on ER-alpha MCF7 (assay: ER-alpha MCF7 HCS EC50; stated as measured by in vitro cell proliferation assays of Examples 902 and 903). Conditions: Homo sapiens, MCF7, MCF7 cells; Table 2.
Format: cell-based
Outline: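 MCF7 cells seeded 1000-2000 cells/well for 16 h, then treated with nine-point 1:2 DMSO dilution series in quadruplicate at 37 °C, 5% CO2 for 4 days. Viable cells quantified by CellTiter-Glo ATP luminescence; EC50 calculated. Controls: fulvestrant at final 100 nM, DMSO 0.2% v/v.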

Compound	EC50 [nM]
C[C@@H]1Cc2c([nH]c3ccccc23)[C@@H](c2c(F)cc(OCCN3CC(CF)C3)cc2F)N1C(=O)CCC#N [Example 206, 4-[(1R,3R)-1-[2,6-difluoro-4-[2-[3-(fluoromethyl)azetidin-1-yl]ethoxy]phenyl]-3-methyl-1,3,4,9-tetrahydropyrido[3,4-b]indol-2-yl]-4-oxo-butanenitrile]	31
C[C@@H]1Cc2c([nH]c3ccccc23)[C@@H](c2ccc(OCCN3CC(CF)C3)cc2Cl)N1CC(C)(C)F [Example 210, (1R,3R)-1-[2-chloro-4-[2-[3-(fluoromethyl)azetidin-1-yl]ethoxy]phenyl]-2-(2-fluoro-2-methyl-propyl)-3-methyl-1,3,4,9-tetrahydropyrido[3,4-b]indole]	0.1
CC(O)CC(=O)N1[C@H](c2c(F)cc(OCCN3CC(CF)C3)cc2F)c2[nH]c3ccccc3c2C[C@H]1C (stereo partly drawn) [Example 212, 1-((1R,3R)-1-(2,6-difluoro-4-(2-(3-(fluoromethyl)azetidin-1-yl)ethoxy)phenyl)-3-methyl-3,4-dihydro-1H-pyrido[3,4-b]indol-2(9H)-yl)-3-hydroxybutan-1-one]	1
C[C@@H]1Cc2c([nH]c3ccccc23)[C@@H](c2c(F)cc(OCCN3CC(CF)C3)cc2F)N1C(=O)C1COC1 [Example 213, [(1R,3R)-1-[2,6-difluoro-4-[2-[3-(fluoromethyl)azetidin-1-yl]ethoxy]phenyl]-3-methyl-1,3,4,9-tetrahydropyrido[3,4-b]indol-2-yl]-(oxetan-3-yl)methanone]	4
C[C@@H]1Cc2c([nH]c3ccccc23)[C@@H](c2c(F)cc(OCCN3CC(CF)C3)cc2F)N1C(=O)C1CSC1 [Example 214, [(1R,3R)-1-[2,6-difluoro-4-[2-[3-(fluoromethyl)azetidin-1-yl]ethoxy]phenyl]-3-methyl-1,3,4,9-tetrahydropyrido[3,4-b]indol-2-yl]-(thietan-3-yl)methanone]	4
C[C@@H]1Cc2c([nH]c3ccccc23)[C@@H](c2c(F)cc(OCCN3CC(CF)C3)cc2F)N1C(=O)[C@@H](C)CF [Example 215, (R)-1-((1R,3R)-1-(2,6-difluoro-4-(2-(3-(fluoromethyl)azetidin-1-yl)ethoxy)phenyl)-3-methyl-1,3,4,9-tetrahydro-2H-pyrido[3,4-b]indol-2-yl)-3-fluoro-2-methylpropan-1-one]	0.335
C[C@H](CF)C(=O)N1[C@H](c2c(F)cc(OCCN3CC(CF)C3)cc2F)c2[nH]c3ccccc3c2C[C@H]1C [Example 218, (S)-1-((1R,3R)-1-(2,6-difluoro-4-(2-(3-(fluoromethyl)azetidin-1-yl)ethoxy)phenyl)-3-methyl-1,3,4,9-tetrahydro-2H-pyrido[3,4-b]indol-2-yl)-3-fluoro-2-methylpropan-1-one]	0.402
C[C@@H]1Cc2c([nH]c3ccccc23)[C@@H](c2c(F)cc(OCCN3CC(CF)C3)cc2F)N1C(=O)C1CCO1 (stereo partly drawn) [Example 219, ((1R,3R)-1-(2,6-difluoro-4-(2-(3-(fluoromethyl)azetidin-1-yl)ethoxy)phenyl)-3-methyl-1,3,4,9-tetrahydro-2H-pyrido[3,4-b]indol-2-yl)(oxetan-2-yl)methanone]	35
C[C@@H]1Cc2c([nH]c3ccccc23)[C@@H](c2c(F)cc(OCCN3CC(CF)C3)cc2F)N1 [Example 220, (1R,3R)-1-[2,6-difluoro-4-[2-[3-(fluoromethyl)azetidin-1-yl]ethoxy]phenyl]-3-methyl-2,3,4,9-tetrahydro-1H-pyrido[3,4-b]indole]	7
C[C@@H]1Cc2c([nH]c3ccccc23)[C@@H](c2ccc(OCCN3CC(CF)C3)cc2)N1C(=O)C(C)(C)F [Example 221, 2-fluoro-1-[(1R,3R)-1-[4-[2-[3-(fluoromethyl)azetidin-1-yl]ethoxy]phenyl]-3-methyl-1,3,4,9-tetrahydropyrido[3,4-b]indol-2-yl]-2-methyl-propan-1-one]	180
C[C@@H]1Cc2c([nH]c3ccccc23)[C@@H](c2c(F)cc(OCCN3CC(CF)C3)cc2F)N1C(=O)CN(C)C [Example 223, 1-[(1R,3R)-1-[2,6-difluoro-4-[2-[3-(fluoromethyl)azetidin-1-yl]ethoxy]phenyl]-3-methyl-1,3,4,9-tetrahydropyrido[3,4-b]indol-2-yl]-2-(dimethylamino)ethanone]	38

Continued, values first:

EC50 [nM]	Compound
0.1	C[C@@H]1Cc2c([nH]c3ccccc23)[C@@H](c2c(F)cc(OC3CN(CCCF)C3)cc2F)N1S(C)(=O)=O [Example 202, (1R,3R)-1-[2,6-difluoro-4-[1-(3-fluoropropyl)azetidin-3-yl]oxy-phenyl]-3-methyl-2-methylsulfonyl-1,3,4,9-tetrahydropyrido[3,4-b]indole]
0.371	C[C@@H]1Cc2c([nH]c3ccccc23)[C@@H](c2c(F)cc(OC[C@H](C)N3CC(C(F)F)C3)cc2F)N1CC(C)(C)F [Example 204, (1R,3R)-1-[4-[(2S)-2-[3-(difluoromethyl)azetidin-1-yl]propoxy]-2,6-difluoro-phenyl]-2-(2-fluoro-2-methyl-propyl)-3-methyl-1,3,4,9-tetrahydropyrido[3,4-b]indole]
0.375	C[C@@H]1Cc2c([nH]c3ccccc23)[C@@H](c2c(F)cc(OCCN3CC(F)(CF)C3)cc2F)N1CC(C)(C)F [Example 205, (1R,3R)-1-[2,6-difluoro-4-[2-[3-fluoro-3-(fluoromethyl)azetidin-1-yl]ethoxy]phenyl]-2-(2-fluoro-2-methyl-propyl)-3-methyl-1,3,4,9-tetrahydropyrido[3,4-b]indole]
13	C[C@@H]1Cc2c([nH]c3ccccc23)[C@@H](c2c(F)cc(OCCN3CC(CF)C3)cc2F)N1CC1CCCCC1 [Example 207, (1R,3R)-2-(cyclohexylmethyl)-1-[2,6-difluoro-4-[2-[3-(fluoromethyl)azetidin-1-yl]ethoxy]phenyl]-3-methyl-1,3,4,9-tetrahydropyrido[3,4-b]indole]
0.066	C[C@@H]1Cc2c([nH]c3ccccc23)[C@@H](c2c(F)cc(OC3CN(CCC4COC4)C3)cc2F)N1CC(C)(C)F [Example 208, (1R,3R)-1-[2,6-difluoro-4-[1-[2-(oxetan-3-yl)ethyl]azetidin-3-yl]oxy-phenyl]-2-(2-fluoro-2-methyl-propyl)-3-methyl-1,3,4,9-tetrahydropyrido[3,4-b]indole]
8	C[C@@H]1Cc2c([nH]c3ccccc23)[C@@H](c2c(F)cc(OC3CN(CC4CCCCC4)C3)cc2F)N1CC(C)(C)F [Example 209, (1R,3R)-1-[4-[1-(cyclohexylmethyl)azetidin-3-yl]oxy-2,6-difluoro-phenyl]-2-(2-fluoro-2-methyl-propyl)-3-methyl-1,3,4,9-tetrahydropyrido[3,4-b]indole]
0.2	C[C@@H]1Cc2c([nH]c3ccccc23)[C@@H](c2ccc(OC3CN(CCCF)C3)cc2Cl)N1CC(C)(C)F [Example 211, (1R,3R)-1-[2-chloro-4-[1-(3-fluoropropyl)azetidin-3-yl]oxy-phenyl]-2-(2-fluoro-2-methyl-propyl)-3-methyl-1,3,4,9-tetrahydropyrido[3,4-b]indole]
1	C[C@@H]1Cc2c([nH]c3ccccc23)[C@@H](c2c(F)cc(OCCN3CC(CF)C3)cc2F)N1CC1CCCC1 [Example 216, (1R,3R)-2-(cyclopentylmethyl)-1-[2,6-difluoro-4-[2-[3-(fluoromethyl)azetidin-1-yl]ethoxy]phenyl]-3-methyl-1,3,4,9-tetrahydropyrido[3,4-b]indole]
2	C[C@@H]1Cc2c([nH]c3ccccc23)[C@@H](c2c(F)cc(OC3CN(CC4CCC(F)(F)CC4)C3)cc2F)N1CC(C)(C)F [Example 217, (1R,3R)-1-[4-[1-[(4,4-difluorocyclohexyl)methyl]azetidin-3-yl]oxy-2,6-difluoro-phenyl]-2-(2-fluoro-2-methyl-propyl)-3-methyl-1,3,4,9-tetrahydropyrido[3,4-b]indole]
0.4	C[C@@H]1Cc2c([nH]c3ccccc23)[C@@H](c2c(F)cc(OC3CN(CCCF)C3)cc2F)N1C(=O)C(C)(C)F [Example 222, 1-[(1R,3R)-1-[2,6-difluoro-4-[1-(3-fluoropropyl)azetidin-3-yl]oxy-phenyl]-3-methyl-1,3,4,9-tetrahydropyrido[3,4-b]indol-2-yl]-2-fluoro-2-methyl-propan-1-one]
0.316	C[C@@H]1Cc2c([nH]c3ccccc23)[C@@H](c2c(F)cc(OC3CN(CC4(F)CC4)C3)cc2F)N1CC(C)(C)F [Example 224, (1R,3R)-1-[2,6-difluoro-4-[1-[(1-fluorocyclopropyl)methyl]azetidin-3-yl]oxy-phenyl]-2-(2-fluoro-2-methyl-propyl)-3-methyl-1,3,4,9-tetrahydropyrido[3,4-b]indole]
1	C[C@@H]1Cc2c([nH]c3ccccc23)[C@@H](c2c(F)cc(OC3CN(CCCF)C3)cc2F)N1C(=O)C1(F)CCC1 [Example 225, [(1R,3R)-1-[2,6-difluoro-4-[1-(3-fluoropropyl)azetidin-3-yl]oxy-phenyl]-3-methyl-1,3,4,9-tetrahydropyrido[3,4-b]indol-2-yl]-(1-fluorocyclobutyl)methanone]
2	C[C@@H]1Cc2c([nH]c3ccccc23)[C@@H](c2c(F)cc(OC3CN(CCCF)C3)cc2F)N1C(=O)C1(C)CC1 [Example 226, [(1R,3R)-1-[2,6-difluoro-4-[1-(3-fluoropropyl)azetidin-3-yl]oxy-phenyl]-3-methyl-1,3,4,9-tetrahydropyrido[3,4-b]indol-2-yl]-(1-methylcyclopropyl)methanone]
0.17	C[C@@H]1Cc2c([nH]c3ccccc23)[C@@H](c2c(F)cc(OC3CN(CCCF)C3)cc2F)N1CC1(CF)CC1 [Example 227]
1	C[C@@H]1Cc2c([nH]c3ccccc23)[C@@H](c2c(F)cc(OC3CN(CCCF)C3)cc2F)N1CC1(CO)CC1 [Example 228, [1-[[(1R,3R)-1-[2,6-difluoro-4-[1-(3-fluoropropyl)azetidin-3-yl]oxy-phenyl]-3-methyl-1,3,4,9-tetrahydropyrido[3,4-b]indol-2-yl]methyl]cyclopropyl] methanol]
